We go through two compounds from publication PMC8835475, “Salviolone from Salvia miltiorrhiza Roots Impairs Cell Cycle Progression, Colony Formation, and Metalloproteinase-2 Activity in A375 Melanoma Cells: Involvement of P21(Cip1/Waf1) Expression and STAT3 Phosphorylation” (International Journal of Molecular Sciences, 2022).

Common to all, as to type: cell-based, human
The test system of assay [1] is MeWo melanoma cell line. Briefly: SRB cell viability assay in MeWo cells. The following applies: for inhibition of melanoma cell viability: 20 µM; for inhibition of melanoma cell viability / EC50: 72 h; for EC50: Homo sapiens, read-out: EC50 useful in diminishing cell viability; for EC50 / viability reduction in melanoma cells: SRB; for viability reduction in melanoma cells: 40–60 µM. As to the method: In preliminary experiments, the evaluation of cell viability at different time after compound administration was carried out with sulforhodamine B (SRB) assay. Indeed, after 24-, 48-, and 72-h treatment, an evident time dependence in the inhibition of cell growth was registered (data not shown). Thus, to evaluate A375 and MeWo cell viability, we decided to perform further SRB experiments with each compound only after 72 h.
Human MeWo (HTB-65) and A375 (CRL-1619) melanoma cell lines as well as the normal human epidermal melanocyte (NHEM) (PCS-200-013) cell line (ATCC, Manassas, VA, USA) were cultured at 37 °C under 5% CO2 in a humidified atmosphere. Roswell Park Memorial Institute 1640 medium (RPMI, Gibco, Ref.21875, Thermo Scientific, Waltham, MA, USA) was used to culture MeWo cells, while Dulbecco’s Modified Eagle Medium (DMEM, Gibco, Ref. 61965, Thermo Scientific, Waltham, MA, USA) was used for A375 and NHEM cell lines. The culture media were supplemented with 10% fetal bovine serum (FBS, Gibco, Thermo Scientific, Waltham, MA, USA) plus 1% Antibiotic Antimycotic Solution (Gibco, Thermo Scientific). The MEK1 inhibitor U0126 (CAY-70970) and the PI3K inhibitor LY294002 (CAY-70920) were provided by Cayman Chemical, Ann Arbor, MI, USA.
Melanoma MeWo and A375 cells or NHEM were seeded in 96-well plates (5.0 × 10^3 cells/well for MeWo cells and 2.9 × 10^3 cells/well for A375 or NHEM). After 24-h culture, the cells were treated with different concentrations of compounds 1–7. After 72-h treatment, the cells were fixed by adding 25 µL/well of 50% (w/v) TCA directly into the culture medium. The plates were incubated at 4 °C for 1 h, washed four times with ddH2O, and dried at RT. Staining was performed by adding 50 µL/well of 0.04% (w/v) sulforhodamine B (SRB) sodium salt solution (Sigma-Aldrich, Milan, Italy). After 1-h incubation at RT, the plates were rinsed with 1% HAc and air-dried. SRB was solubilized in a 10 mM Tris-base solution pH 10.5 and Abs492 measured in the plate reader TECAN NanoQuant Infinite M200 Pro (Tecan Group Ltd., Männedorf, Switzerland). Six replicates for each condition/data point were performed.

Assay [2] deals with pRb. Briefly: Immunoblot of pRb in A375 cells. To be noted: A375, 20 µM, 48 or 72 h. As for the experimental part: (§1) A375 cells were seeded in 6 cm Petri dishes (190 300 cell/dish) and treated with different compounds at 10 or 20 μM. After 48- or 72-h treatment, the cells were scraped using warm 1× sample buffer (2% SDS, 10% glycerol, 50 mM Tris-HCl, 1.75% β-mercaptoethanol, and bromophenol blue) and boiled at 99 °C for 10 min. Total protein extracts were kept at −80 °C until use.
Protein extracts were analyzed with a 7.5 or 10% polyacrylamide SDS-PAGE and transferred to a polyvinylidene difluoride membrane (PVDF, Thermo Fisher Scientific, Waltham, MA, USA). The membranes were blocked at RT for 1 h with TBST buffer (10 mM Tris-HCl pH 7.5, 100 mM NaCl, 0.1% Tween20) containing 4% Milk (Formulat). […] Immuno-detection was carried out with an ECL kit (GE-Healthcare, Little Chalfont, UK), and the chemiluminescence signals were detected with ChemiDoc (Bio-Rad, Hercules, CA, USA).
Background: In western blotting, separated proteins are transferred to a membrane and probed.

The test system of assay [3] is pERK1/2. Briefly: Immunoblot of pERK1/2 in A375 cells. To be noted: A375, 20 µM, 72 h; declined in control. As for the experimental part: as §1
(§2) Protein extracts were analyzed with a 7.5 or 10% polyacrylamide SDS-PAGE and transferred to a polyvinylidene difluoride membrane (PVDF, Thermo Fisher Scientific, Waltham, MA, USA). The membranes were blocked at RT for 1 h with TBST buffer (10 mM Tris-HCl pH 7.5, 100 mM NaCl, 0.1% Tween20) containing 4% Milk (Formulat). Then, they were incubated on a shaker, overnight (ON) at 4 °C, with 5% BSA solution containing primary antibodies against p-Tyr705-STAT3 (#9145, 1:1000), pRb (#8516, 1:2000), pERK (#4370, 1:1000), pAkt (#4060, 1:2000), pSer15-P53 (#9286, 1:2000) (Cell Signaling Technology, Danvers, […], USA), Akt (GTX121937, 1:3000), ERK (GTX134452, 1:6000), Cyclin A2 (GTX-103042, 1:3000), p-Thr160Cdk2 (GTX-133862, 1:3000), p21 (GTX-629543, 1:3000) (Genetex, Alton Pkwj Irvine, CA, USA), p53 (Sc-263, 1:1000), STAT3 (Sc-482, 1:1000), and p-Ser727-STAT3 (Sc-136193, 1:1000) (Santa Cruz Biotechnology, Dallas, TX, USA). The membranes were washed three times with TBST buffer for 30 min and then incubated for 1 h with a horseradish-peroxidase-conjugated secondary antibody (anti-rabbit 1:6000, Genetex), (anti-mouse, 1:4000, Cell Signaling Technology, Danvers, […], USA). They were washed another three times for 30 min with TBST buffer. All protein extracts were normalized with a β-actin protein antibody (GTX-124214, 1:10,000; Genetex, Alton Pkwj Irvine, CA, USA). Immuno-detection was carried out with an ECL kit (GE-Healthcare, Little Chalfont, UK), and the chemiluminescence signals were detected with ChemiDoc (Bio-Rad, Hercules, CA, USA).

The test system of assay [4] is pAkt. Briefly: Immunoblot of pAkt in A375 cells. The following applies: A375, 20 µM, 72 h; declined in control. As for the experimental part:
as §1, §2

The subject of assay [5] is MMP2 gelatinase activity. Briefly: Gelatin zymography of MMP2 activity in A375 cells. The following applies: A375, 10 and 20 µM, gel zymography. As to the method: A gel zymography assay can measure the ability of matrix metalloproteinases (MMPs) to digest their substrate gelatin present in the gel. Thus, the zymographic approach allows sensitive and quantifiable analysis of the activity of MMPs that can be recognized by their molecular weight. […] Both compounds 7 and 4 at 10 and 20 µM inhibited MMP2 gelatinase activity in the A375 melanoma cell line (Figure 6B).
A375 cells were cultured in the presence of 10 or 20 µM cryptotanshinone (4), salviolone (7), or 1 µM onconase (provided by Prof. G. Gotte), as a positive control, for 48 h and then they were serum starved for 24 h. The conditioned medium was collected and 10× concentrated with an Amicon Ultra-2 Centrifugal filter unit (Merck-Millipore, Milan, Italy). Protein concentrations were determined with Coomassie (Thermo Fisher Scientific, Waltham, MA, USA) and samples treated with a non-reducing sample buffer. To separate proteins, a 7.5% SDS-PAGE was performed. The gel contained 4 mg/mL of gelatin (Sigma-Aldrich, Milan, Italy) and was washed with 50 mM Tris-HCl pH 7.5, 5 mM CaCl2, and 1 μM ZnCl2 supplemented with 2.5% Triton X-100 (Serva Electrophoresis, Heidelberg, Germany). […] The gel was stained with 0.5% Coomassie Brilliant Blue R-250 in 20% ethanol/10% acetic acid, and the gelatinase activity was detected by evaluating the presence and intensity of clear bands on the blue background.

Turning to `C[C@H]1COC2=C1C(=O)C(=O)c1c2ccc2c1CCCC2(C)C` [Compound 4, cryptotanshinone], in assay [1], the “inhibition of melanoma cell viability” value is “about 50%”; the EC50 (as a rule, the concentration at which the effect is half-maximal) came to 17 µM; the “viability reduction in melanoma cells” value was 70–80%. Moreover, the “phosphorylation of Rb (pRb) expression level” value in assay [2] is reported as “slightly reduced”. In assay [3], the pERK1/2 expression level entry was “remained high”. Further, the pAkt expression level entry in assay [4] is given as “remained high”. The MMP2 gelatinase activity result in assay [5] is listed as “inhibited”.
For `Cc1cc2ccc3c(c2cc(O)c1=O)CCCC3(C)C` [Compound 7, salviolone], in assay [1], the “inhibition of melanoma cell viability” value is on record as “about 50%”, the EC50 was determined as 22 µM and the “viability reduction in melanoma cells” value is given as 70–80%. Besides, the “phosphorylation of Rb (pRb) expression level” value in assay [2] was “strongly reduced”. For the same compound, the pERK1/2 expression level result in assay [3] is reported as “remained high”. Moreover, the pAkt expression level entry in assay [4] is “remained high”. Besides, the MMP2 gelatinase activity result in assay [5] was “inhibited”.
